Data from the supplement of paper PMC12533247.
± gives the standard deviation of the averaged measurements.

Key:
[1] = system: HSV-1 K26-GFP infected 3D skin equivalent; experiment: % activity on HSV-1 GFP signal (0 = infected DMSO control, -100 = uninfected control); higher = higher signal (negative = inhibition / toxicity); conditions: time (h post infection): 48
Method: (§1)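 Triplicate dose-response (0.04 to 10 uM) of 11 top compounds in 3D bioprinted skin equivalents (submerged and ALI models) infected with GFP-HSV-1 K26 at MOI 0.1 and fixed at 48 hpi. GFP (virus) and tdTomato (fibroblast viability) signals are normalised to per-plate controls.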

[2] = system: HSV-1 K26-GFP infected 3D skin equivalent; experiment: % change of tdTomato fibroblast signal relative to infected DMSO control; higher = higher signal (negative = inhibition / toxicity); conditions: time (h post infection): 48
Method: as §1

[3] = system: HSV-1 K26-GFP infected primary human skin cells; experiment: % change of HSV-1 GFP signal vs untreated infected cells; higher = less antiviral inhibition; conditions: cell type: primary dermal fibroblasts, time (h post infection): 48
Method: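 2D primary donor-derived dermal fibroblasts infected with GFP-HSV-1 K26 at MOI 1, treated 1 h later with compound dilutions and read at 48 hpi on IncuCyte. GFP integrated intensity is normalised to mock-infected and untreated infected wells (% change; -100 = full inhibition).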

[4] = system: HSV-1 K26-GFP infected primary human skin cells; experiment: as above
Method: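 2D primary donor-derived keratinocytes (read at 20 hpi) and donor-matched dermal fibroblasts (read at 48 hpi) infected with GFP-HSV-1 K26 at MOI 1 and treated 1 h later with compound dilutions. IncuCyte GFP integrated intensity is normalised by subtracting mock-infected wells and dividing by untreated infected wells, shown as % change (-100 = full inhibition).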

O=C(/C=C\n1cnc(-c2cc(C(F)(F)F)cc(C(F)(F)F)c2)n1)NNc1ccccn1 [Verdinexor]
Conditions | % activity on HSV-1 GFP signal [%] | % change of HSV-1 GFP signal [%] | % change of tdTomato fibroblast signal [%]
[1], 0.041152 µM, model: ALI | 22.5 ± 12 | – | –
[1], 0.041152 µM, model: submerged | -2.17 ± 3 | – | –
[1], 0.123457 µM, model: ALI | -30.1 ± 23 | – | –
[1], 0.123457 µM, model: submerged | -37 ± 12 | – | –
[1], 0.37037 µM, model: ALI | -82.5 ± 16 | – | –
[1], 0.37037 µM, model: submerged | -41.1 ± 7.8 | – | –
[1], 1.111111 µM, model: ALI | -92.6 ± 9.2 | – | –
[1], 1.111111 µM, model: submerged | -56.4 ± 6.4 | – | –
[1], 3.33333 µM, model: ALI | -105 ± 2.9 | – | –
[1], 3.33333 µM, model: submerged | -65.7 ± 3.8 | – | –
[1], 10 µM, model: ALI | -108 ± 8 | – | –
[1], 10 µM, model: submerged | -68.6 ± 7.5 | – | –
[2], 0.041152 µM, model: ALI | – | – | 8.09 ± 10
[2], 0.041152 µM, model: submerged | – | – | 8.73 ± 13
[2], 0.123457 µM, model: ALI | – | – | -4.16 ± 1.6
[2], 0.123457 µM, model: submerged | – | – | -8.13 ± 10
[2], 0.37037 µM, model: ALI | – | – | -13.3 ± 5.4
[2], 0.37037 µM, model: submerged | – | – | -4.26 ± 4
[2], 1.111111 µM, model: ALI | – | – | -11.7 ± 11
[2], 1.111111 µM, model: submerged | – | – | -2.44 ± 13
[2], 3.33333 µM, model: ALI | – | – | -19.1 ± 21
[2], 3.33333 µM, model: submerged | – | – | -1.43 ± 5.2
[2], 10 µM, model: ALI | – | – | -6.29 ± 5.3
[2], 10 µM, model: submerged | – | – | -5.83 ± 20
[3], 0.001 µM, donor: 3 | – | 2.8 ± 12 | –
[3], 0.001 µM, donor: 4 | – | -3.59 ± 3.6 | –
[3], 0.003 µM, donor: 3 | – | 3.24 ± 5.4 | –
[3], 0.003 µM, donor: 4 | – | -6.87 ± 5.1 | –
[3], 0.0091 µM, donor: 3 | – | 5.63 ± 4.6 | –
[3], 0.0091 µM, donor: 4 | – | -5.59 ± 9.3 | –
[3], 0.0274 µM, donor: 3 | – | 3.47 ± 1.8 | –
[3], 0.0274 µM, donor: 4 | – | -11.5 ± 8.2 | –
[3], 0.0823 µM, donor: 3 | – | -1.6 ± 11 | –
[3], 0.0823 µM, donor: 4 | – | -10.8 ± 5.7 | –
[3], 0.2469 µM, donor: 3 | – | -1.84 ± 3.6 | –
[3], 0.2469 µM, donor: 4 | – | -12 ± 2.1 | –
[3], 0.7407 µM, donor: 3 | – | -13.6 ± 4 | –
[3], 0.7407 µM, donor: 4 | – | -15.2 ± 4.7 | –
[3], 2.2222 µM, donor: 3 | – | -31.7 ± 6 | –
[3], 2.2222 µM, donor: 4 | – | -33.3 ± 11 | –
[3], 6.6667 µM, donor: 3 | – | -34.8 ± 8.4 | –
[3], 6.6667 µM, donor: 4 | – | -32.3 ± 15 | –
[3], 20 µM, donor: 3 | – | -49 ± 24 | –
[3], 20 µM, donor: 4 | – | -21.8 ± 2.3 | –

% change of HSV-1 GFP signal [%], [4]
Conditions | 0.001 µM | 0.003 µM | 0.0091 µM | 0.0274 µM | 0.0823 µM | 0.2469 µM | 0.7407 µM | 2.2222 µM | 6.6667 µM | 20 µM
cell type: primary dermal fibroblasts, donor: 5, time (h post infection): 48 | -15.5 ± 10 | -14.5 ± 7.4 | -9.81 ± 1.9 | -15.2 ± 7 | -14.8 ± 4.2 | -16.9 ± 4.9 | -28.1 ± 3.1 | -45.5 ± 2.2 | -46.8 ± 3.4 | -46.5 ± 7.1
cell type: primary keratinocytes, donor: 3, time (h post infection): 20 | 17.4 ± 44 | 18.1 ± 37 | 8.7 ± 34 | 2.9 ± 49 | 12.9 ± 26 | 9.98 ± 29 | -22.6 ± 40 | -68.6 ± 20 | -87.6 ± 8.3 | -92 ± 6
cell type: primary keratinocytes, donor: 4, time (h post infection): 20 | -13.1 ± 15 | -10.8 ± 7 | -21.9 ± 34 | -29.6 ± 21 | -15.4 ± 5.8 | -22.4 ± 4.3 | -47.4 ± 5.1 | -82.8 ± 1.5 | -95.8 ± 3.9 | -97.6 ± 1.9
cell type: primary keratinocytes, donor: 5, time (h post infection): 20 | 6.47 ± 9.6 | 3.84 ± 10 | 3.12 ± 7.2 | 6.11 ± 5.4 | 10.5 ± 14 | 3.84 ± 13 | 8.2 ± 10 | -36.4 ± 28 | -76.6 ± 2.2 | -94.9 ± 2.6

Cc1nc(N(C)C(=O)Cc2ccc(-c3ccccn3)cc2)sc1S(N)(=O)=O [Pritelivir]
Conditions | % activity on HSV-1 GFP signal [%] | % change of HSV-1 GFP signal [%] | % change of tdTomato fibroblast signal [%]
[1], 0.041152 µM, model: ALI | 4.25 ± 52 | – | –
[1], 0.041152 µM, model: submerged | -6.28 ± 2.1 | – | –
[1], 0.123457 µM, model: ALI | -38.2 ± 38 | – | –
[1], 0.123457 µM, model: submerged | -11 ± 17 | – | –
[1], 0.37037 µM, model: ALI | -92.9 ± 12 | – | –
[1], 0.37037 µM, model: submerged | -37.4 ± 7.2 | – | –
[1], 1.111111 µM, model: ALI | -106 ± 3.8 | – | –
[1], 1.111111 µM, model: submerged | -83.7 ± 8.9 | – | –
[1], 3.33333 µM, model: ALI | -106 ± 3.5 | – | –
[1], 3.33333 µM, model: submerged | -96.7 ± 3 | – | –
[1], 10 µM, model: ALI | -102 ± 4.8 | – | –
[1], 10 µM, model: submerged | -94.6 ± 4 | – | –
[2], 0.041152 µM, model: ALI | – | – | 16.3 ± 5.5
[2], 0.041152 µM, model: submerged | – | – | 11.8 ± 11
[2], 0.123457 µM, model: ALI | – | – | 6.72 ± 3.8
[2], 0.123457 µM, model: submerged | – | – | -3.78 ± 14
[2], 0.37037 µM, model: ALI | – | – | 0.531 ± 5
[2], 0.37037 µM, model: submerged | – | – | 0.74 ± 3.8
[2], 1.111111 µM, model: ALI | – | – | -3.11 ± 5.6
[2], 1.111111 µM, model: submerged | – | – | -3.09 ± 13
[2], 3.33333 µM, model: ALI | – | – | -3.08 ± 8
[2], 3.33333 µM, model: submerged | – | – | -6.25 ± 18
[2], 10 µM, model: ALI | – | – | 12 ± 5.2
[2], 10 µM, model: submerged | – | – | -0.666 ± 3.1
[3], 0.001 µM, donor: 3 | – | 4.72 ± 8.3 | –
[3], 0.001 µM, donor: 4 | – | 1.2 ± 5.1 | –
[3], 0.003 µM, donor: 3 | – | 1.04 ± 12 | –
[3], 0.003 µM, donor: 4 | – | -0.451 ± 6.2 | –
[3], 0.0091 µM, donor: 3 | – | -2.12 ± 11 | –
[3], 0.0091 µM, donor: 4 | – | -4.4 ± 5 | –
[3], 0.0274 µM, donor: 3 | – | -9.3 ± 18 | –
[3], 0.0274 µM, donor: 4 | – | -16.7 ± 3.4 | –
[3], 0.0823 µM, donor: 3 | – | -30 ± 18 | –
[3], 0.0823 µM, donor: 4 | – | -36.8 ± 14 | –
[3], 0.2469 µM, donor: 3 | – | -61 ± 13 | –
[3], 0.2469 µM, donor: 4 | – | -74.4 ± 9.5 | –
[3], 0.7407 µM, donor: 3 | – | -81.3 ± 8.3 | –
[3], 0.7407 µM, donor: 4 | – | -91.2 ± 7.4 | –
[3], 2.2222 µM, donor: 3 | – | -90.9 ± 9.8 | –
[3], 2.2222 µM, donor: 4 | – | -99.47 ± 0.72 | –
[3], 6.6667 µM, donor: 3 | – | -93.7 ± 8.7 | –
[3], 6.6667 µM, donor: 4 | – | -99.82 ± 0.19 | –
[3], 20 µM, donor: 3 | – | -98.48 ± 0.79 | –
[3], 20 µM, donor: 4 | – | -99.71 ± 0.27 | –

% change of HSV-1 GFP signal [%], [4]
Conditions | 0.001 µM | 0.003 µM | 0.0091 µM | 0.0274 µM | 0.0823 µM | 0.2469 µM | 0.7407 µM | 2.2222 µM | 6.6667 µM | 20 µM
cell type: primary dermal fibroblasts, donor: 5, time (h post infection): 48 | -6.88 ± 4.5 | -8.21 ± 4.4 | -6.16 ± 4.9 | -14.2 ± 7.1 | -21.8 ± 12 | -61.5 ± 13 | -88.3 ± 2.3 | -99.754 ± 0.022 | -99.905 ± 0.036 | -99.853 ± 0.025
cell type: primary keratinocytes, donor: 3, time (h post infection): 20 | 6.78 ± 11 | 7.17 ± 9 | 4.27 ± 4.4 | 0.771 ± 5.4 | -17.7 ± 10 | -65.2 ± 8.8 | -88.8 ± 3.1 | -97.9 ± 1.2 | -98.88 ± 0.32 | -98.8 ± 0.49
cell type: primary keratinocytes, donor: 4, time (h post infection): 20 | 1.71 ± 13 | 10.5 ± 9.8 | 3.75 ± 11 | -0.535 ± 6.8 | -26 ± 26 | -77.35 ± 0.24 | -95.7 ± 1.6 | -99.05 ± 0.63 | -99.54 ± 0.37 | -99.35 ± 0.34
cell type: primary keratinocytes, donor: 5, time (h post infection): 20 | 3.7 ± 11 | 2.94 ± 0.24 | 1.99 ± 4.4 | -6.85 ± 0.35 | -31.7 ± 11 | -72.3 ± 10 | -94.1 ± 3.8 | -99.54 ± 0.45 | -99.63 ± 0.33 | -99.66 ± 0.35
